Our source for the inhibition and IC50 values is ChEMBL document CHEMBL5260804 (ACS Med Chem Lett, 2017).

The subject of test [1] is Oocyte. The experiment in a line: Inhibition of influenza A virus A/WSN/33-M2-N31S (H1N1) M2 transmembrane domain V28I mutant expressed in Xenopus laevis oocytes assessed as inhibition of channel current at 100 uM measured after 5 mins by two-electrode voltage clamp assay relative to control. It is filed as cell-based.
Test [2] concerns Oocyte. The experiment in a line: Inhibition of influenza A virus A/WSN/33-M2-N31S (H1N1) M2 transmembrane domain V28I mutant expressed in Xenopus laevis oocytes assessed as inhibition of channel current at 100 uM measured after 2 mins by two-electrode voltage clamp assay relative to control. It is filed as cell-based.
The test system of another test is Influenza A virus. The experiment in a line: Antiviral activity against amantadine-sensitive influenza A virus A/WSN/33-M2-N31S (H1N1) infected in MDCK cells assessed as inhibition of virus-induced cytopathic effect incubated for 48 hrs by crystal violet/neutral red staining based assay. It is filed as functional, organism-based.

Regarding `CC(N)C12CC3CC(CC(C3)C1)C2` (racemic) [RIMANTADINE], the inhibition amounted to 93% in the test with Oocyte [1] and 84% with Oocyte [2]. In the test with Influenza A virus, the 50% inhibitory concentration (IC50) is 0.04 µM.

Regarding `C[C@H](N)C12CC3CC(CC(C3)C1)C2`, the inhibition in the test on Oocyte [1] was 92%; in the test with Oocyte [2], 78%. In the test with Influenza A virus, the 50% inhibitory concentration (IC50) turned out to be 0.02 µM.

As for `CC(C)(N)C12CC3CC(CC(C3)C1)C2`, the figures for the inhibition in the test on Oocyte [1] and in the test with Oocyte [2] were 80% and 56%, respectively. In the test on Influenza A virus, the IC50 stood at 0.03 µM.

As for `C[C@@H](N)C12CC3CC(CC(C3)C1)C2`, the inhibition turned out to be 90% in the test on Oocyte [1] and 71% in the test on Oocyte [2]. In addition, in the test with Influenza A virus, the IC50 worked out at 0.04 µM.

Take `NC12CC3CC(CC(C3)C1)C2` [AMANTADINE]: the 50% inhibitory concentration (IC50) with Influenza A virus was 0.48 µM.
